Source: patent US5891917A, “Certain acrylonitrile-sulfonamide derivatives” (Sugen, Inc., priority 1997, dated 1999)

target: T1, EGFR (Homo sapiens, UniProt P00533); experiment: EGFR Whole Cell Kinase Assay (ELISA); type: cell-based; settings: EGFR/C7 (NIH3T3) cells, 25 nM EGF
T1 construct: expressed in transfected cells; host or cells: NIH3T3 clone C7 (EGFR/C7, Honegger et al.)
From the text: The following examples illustrate the ability of the exemplary compounds to inhibit receptor tyrosine kinases, such as HER2 and/or EGFR. The following target cells were used for cellular kinase assays: NIH3T3 clone C7 (Honegger et al., supra) engineered to over-express human EGF receptor; NIH3T3 cells engineered to over-express a chimeric receptor containing the EGFR extracellular domain and the HER2 intracellular kinase domain; the human mammary carcinoma line BT474 (ATCC HTB2) expressing HER2; and the human glioblastoma line U1242 that expresses PDGFR-beta. Growth assays were carried out using human mammary epithelial SKBR3 (ATCC HTB30) cells (SKBR3 cells over-express HER2), SKOV3 (ATCC HTB77) human ovarian cancer cell line (SKOV3 cells also over-express HER2), A431 cells (A431 cells over-express EGFR) MCF7 human breast carcinoma cells, MCF7 cells overexpressing the HER2 kinase (MCF7-HER2), NIH3T3 cells, and NIH3T3 cells overexpressing the HER2 kinase (3T3-HER2.
EGFR Whole Cell Kinase Assay
EGFR kinase activity (EGFR-3T3 assay) in whole cells was measured as described below:
A. Coat ELISA plates (Corning, 96 well, Cat. #25805-96) with 05-101 antibody at 0.5 μg per well in PBS, 150 μl final volume/well, and store overnight at 4° C. Coated plates are good for up to 10 days when stored at 4° C.
B. On day of use, remove coating buffer and replace with blocking buffer (5% Carnation Instant NonFat Dry Milk in PBS). Incubate the plate, shaking, at room temperature (about 23° C. to 25° C.) for 30 minutes. Just prior to use, remove blocking buffer and wash plate 4 times with TBST buffer.
A. EGFR/C7 cell line (Honegger, et al., supra) can be used for this assay.
B. Choose dishes having 80-90% confluence for the experiment. Trypsinize cells and stop reaction by adding 10% CS DMEM medium. Suspend cells in DMEM medium (10% CS DMEM medium) and centrifuge once at 1000 rpm, and once at room temperature for 5 minutes.
C. Resuspend cells in seeding medium (DMEM, 0.5% bovine serum), and count the cells using trypan blue. Viability above 90% is acceptable. Seed cells in DMEM medium (0.5% bovine serum) at a density of 10,000 cells per well, 100 μl per well, in a 96 well microtiter plate. Incubate seeded cells in 5% CO2 at 37° C. for about 40 hours.
A. Check seeded cells for contamination using an inverted microscope. Dilute drug stock (10 mg/ml in DMSO) 1:10 in DMEM medium, then transfer 5 μl to a test well for a final drug dilution of 1:200 and a final DMSO concentration of […]. Control wells receive DMSO alone. Incubate in 5% CO2 at 37° C. for one hour.
B. Prepare EGF ligand: dilute stock EGF in DMEM so that upon transfer of 10 μl dilute EGF (1:12 dilution), 25 nM final concentration is attained.
D. After two hours incubation with drug, add prepared EGF ligand to cells, 10 μl per well, to yield a final concentration of 25 nM. Control wells receive DMEM alone. Incubate, shaking, at room temperature, for 5 minutes.
E. Remove drug, EGF, and DMEM. Wash cells twice with PBS. Transfer HNTG* to cells, 100 μl per well. Place on ice for 5 minutes. Meanwhile, remove blocking buffer from other ELISA plate and wash with TBST as described above.
F. With a pipette tip securely fitted to a micropipettor, scrape cells from plate and homogenize cell material by repeatedly aspirating and dispensing the HNTG* lysis buffer. Transfer lysate to a coated, blocked, and washed ELISA plate. Incubate shaking at room temperature for one hour.
G. Remove lysate and wash 4 times with TBST. Transfer freshly diluted anti-Ptyr antibody to ELISA plate at 100 μl per well. Incubate shaking at room temperature for 30 minutes in the presence of the anti-Ptyr antiserum (1:3000 dilution in TBST).
H. Remove the anti-Ptyr antibody and wash 4 times with TBST. Transfer the freshly diluted TAGO 30 anti-rabbit IgG antibody (anti-rabbit IgG antibody: 1:3000 dilution in TBST) to the ELISA plate at 100 μl per well. Incubate shaking at room temperature for 30 minutes. […]

T1 sequence (P00533 25-1210): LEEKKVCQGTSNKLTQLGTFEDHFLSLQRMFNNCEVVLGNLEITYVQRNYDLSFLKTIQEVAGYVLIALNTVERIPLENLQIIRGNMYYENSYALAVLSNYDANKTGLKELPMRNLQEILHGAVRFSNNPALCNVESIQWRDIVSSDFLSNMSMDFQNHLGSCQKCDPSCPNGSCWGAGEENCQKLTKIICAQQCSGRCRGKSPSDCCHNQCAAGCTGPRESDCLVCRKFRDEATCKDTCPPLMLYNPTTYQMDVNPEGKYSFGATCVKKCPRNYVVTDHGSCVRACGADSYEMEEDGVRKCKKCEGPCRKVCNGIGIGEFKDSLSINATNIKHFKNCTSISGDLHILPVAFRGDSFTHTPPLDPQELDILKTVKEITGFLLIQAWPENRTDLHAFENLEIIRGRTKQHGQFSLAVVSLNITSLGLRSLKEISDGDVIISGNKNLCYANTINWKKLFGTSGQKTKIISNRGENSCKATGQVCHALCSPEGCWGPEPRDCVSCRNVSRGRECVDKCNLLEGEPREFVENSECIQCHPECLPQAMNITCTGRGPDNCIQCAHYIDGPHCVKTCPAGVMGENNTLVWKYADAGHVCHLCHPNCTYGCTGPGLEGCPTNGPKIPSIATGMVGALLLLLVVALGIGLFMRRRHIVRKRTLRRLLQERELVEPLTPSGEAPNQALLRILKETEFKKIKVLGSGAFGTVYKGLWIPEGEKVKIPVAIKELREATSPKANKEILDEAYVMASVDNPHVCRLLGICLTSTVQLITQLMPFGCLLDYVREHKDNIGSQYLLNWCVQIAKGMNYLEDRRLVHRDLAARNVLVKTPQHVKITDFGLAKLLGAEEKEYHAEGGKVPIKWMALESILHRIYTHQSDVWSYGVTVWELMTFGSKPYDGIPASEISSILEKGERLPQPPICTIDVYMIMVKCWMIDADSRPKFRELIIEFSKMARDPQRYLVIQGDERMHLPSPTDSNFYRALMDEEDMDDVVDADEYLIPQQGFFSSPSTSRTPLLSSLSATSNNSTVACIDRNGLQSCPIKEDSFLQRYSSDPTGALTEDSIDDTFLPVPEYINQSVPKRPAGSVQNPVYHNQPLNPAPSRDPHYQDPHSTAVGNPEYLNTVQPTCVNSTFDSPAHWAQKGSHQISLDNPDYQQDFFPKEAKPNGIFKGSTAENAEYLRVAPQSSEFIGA

Point of comparison: `CC(C)c1cc(/C=C(\C#N)S(=O)(=O)c2cccs2)cc(C(C)C)c1O` [Compound 737], IC50 77 µM. Against it:
- CC(C)(C)c1cc(/C=C(\C#N)S(=O)(=O)c2ccc(F)cc2)cc(C(C)(C)C)c1O [Compound 740] — higher, > 100 µM
- Cc1cc(/C=C(\C#N)S(=O)(=O)Cc2cccc(C(F)(F)F)c2)cc(C)c1O [Compound 739] — higher, > 100 µM
- Cc1cc(/C=C(\C#N)S(=O)(=O)c2ccc(F)cc2)cc(C)c1O [Compound 744] — higher, > 100 µM
- CC(C)c1cc(/C=C(\C#N)S(=O)(=O)Cc2cccc(C(F)(F)F)c2)cc(C(C)C)c1O [Compound 736] — within 1.5-fold, 100 µM
- CC(C)c1cc(/C=C(\C#N)S(=O)(=O)c2ccc(F)cc2)cc(C(C)C)c1O [Compound 741, (E)-3-(3,5-Diisopropyl-4-hydroxyphenyl)-2-(4-fluorophenylsulfonyl)acrylonitrile] — within 1.5-fold, 52.7 µM
- N#C/C(=C\c1ccc(O)cc1Cl)S(=O)(=O)NCCCc1ccccc1 [Compound 734] — higher, > 100 µM
- CC(C)c1cc(/C=C(\C#N)S(=O)(=O)/C(C#N)=C/c2cc(C(C)C)c(O)c(C(C)C)c2)cc(C(C)C)c1O [Compound 745] — not separable, < 100 µM
- CC(C)c1cc(/C=C(\C#N)S(=O)(=O)c2ccccc2)cc(C(C)C)c1O [Compound 731] — within 1.5-fold, 73.2 µM
- CC(C)(C)c1cc(/C=C(\C#N)S(=O)(=O)c2cccs2)cc(C(C)(C)C)c1O [Compound 742] — higher, > 100 µM
- N#C/C(=C\c1ccc(O)cc1Cl)S(=O)(=O)NCc1ccccc1 [Compound 733] — higher, > 100 µM
- CC(C)(C)c1cc(/C=C(\C#N)S(=O)(=O)c2ccsc2)cc(C(C)(C)C)c1O [Compound 746] — higher, > 100 µM
- CC(C)c1cc(/C=C(\C#N)S(=O)(=O)c2ccsc2)cc(C(C)C)c1O [Compound 738] — within 1.5-fold, 79.2 µM
- N#C/C(=C\c1ccc(O)c(O)c1)S(=O)(=O)c1cccs1 [Compound 743, (E)-3-(3,4-Dihydroxyphenyl)-2-[(thien-2-yl)sulfonyl]acrylonitrile] — higher, > 100 µM
- CC(C)c1cc(/C=C(\C#N)S(=O)(=O)NCc2ccccc2)cc(C(C)C)c1O [Compound 732] — within 1.5-fold, 58 µM
